Bridge positions count the residues as written; N and C are the ends. Square brackets hold non-standard residues; d marks the D form. Peptide text beside a SMILES is read from it. * marks the point of attachment. ξ: configuration not given here. Trp(βS-Me) = C[C@@H](c1c[nH]c2ccccc12)[C@H](N)C(=O)O; Phe(3-CF3) = N[C@@H](Cc1cccc(C(F)(F)F)c1)C(=O)O; Phe(4-COOH) = N[C@@H](Cc1ccc(C(=O)O)cc1)C(=O)O; Bip = N[C@@H](Cc1ccc(-c2ccccc2)cc1)C(=O)O; NH(CH2)14COOH = O=C(O)CCCCCCCCCCCCCCN*; Phe(3-Me) = Cc1cccc(C[C@H](N)C(=O)O)c1; NH(CH2)12COOH = O=C(O)CCCCCCCCCCCCN*; Val(3-OH) = CC(C)(O)[C@H](N)C(=O)O; 4Pal = N[C@@H](Cc1ccncc1)C(=O)O; Cha = N[C@@H](CC1CCCCC1)C(=O)O; Cit = NC(=O)NCCC[C@H](N)C(=O)O; Ile(3ξ) = CCC(C)[C@H](N)C(=O)O; Thr(3ξ) = CC(O)[C@H](N)C(=O)O; Cba = N[C@@H](CC1CCC1)C(=O)O; Carboxymethyl = O=C(O)C*; Orn = NCCC[C@H](N)C(=O)O; Aun = NCCCCCCCCCCC(=O)O; Dab = NCC[C@H](N)C(=O)O; Dap = NC[C@H](N)C(=O)O; AEEA = NCCOCCOCC(=O)O; Ac3c = NC1(C(=O)O)CC1; Piv = CC(C)(C)C(=O)*
What follows are molecules tested against T1, PD-1/PD-L1 interaction (PE-labeled human PD-L1-Ig binding to Jurkat cell line over-expressing human PD-1) (Homo sapiens, UniProt Q15116) (assay: Jurkat-PD-1 Cell Binding High-Content Screening Assay (CBA)). Settings: Jurkat cell line over-expressing human PD-1; PE-labeled PD-L1-Ig 20 nM final; read-out: Jurkat hPD1-PDL1 IC50.
T1 construct: expressed in transfected cells; host or cells: Jurkat
T1 sequence (Q15116 25-288): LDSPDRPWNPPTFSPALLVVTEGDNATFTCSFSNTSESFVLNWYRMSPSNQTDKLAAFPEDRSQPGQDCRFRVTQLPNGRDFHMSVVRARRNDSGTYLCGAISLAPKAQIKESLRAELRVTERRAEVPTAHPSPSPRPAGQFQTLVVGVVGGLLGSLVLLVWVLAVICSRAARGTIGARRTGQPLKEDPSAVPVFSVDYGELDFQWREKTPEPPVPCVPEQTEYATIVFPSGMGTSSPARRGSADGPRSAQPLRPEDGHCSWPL
Type: cell-based
Summary of the method: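 Binding of fluorescent PD-L1-Ig (phycoerythrin on Ig tag, 20 nM final, 1 h) measured by high-content imaging of fixed, Hoechst-counterstained Jurkat-hPD-1 cells. Compound added 2 h at 37° C beforehand, in DMEM with 10% fetal calf serum.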

Row | SMILES | IC50
1 | CC(C)C[C@H]1NC(=O)[C@H](CCCN)NC(=O)[C@H](Cc2ccc(OCC(=O)O)cc2)NC(=O)[C@H](Cc2ccc(-c3ccccc3)cc2)NC(=O)[C@H](Cc2ccc(OCC(=O)O)cc2)NC(=O)[C@H]([C@@H](C)c2c[nH]c3ccccc23)NC(=O)[C@H](CC(=O)O)NC(=O)[C@H](Cc2ccc(OCC(=O)O)cc2)NC(=O)[C@H](CCCNC(=N)N)NC(=O)CSC[C@@H](C(=O)NC2(C(=O)NCCCCCCCCCCC(=O)O)CC2)NC(=O)[C@H]([C@@H](C)O)NC(=O)[C@H](C(C)C)NC(=O)[C@H](CC2CCCCC2)NC(=O)[C@H](CCN)NC1=O [Compound 2135] ({CH2CO}-RY(Carboxymethyl)D[Trp(βS-Me)]Y(Carboxymethyl)[Bip]Y(Carboxymethyl)[Orn][dL][Dab][Cha]VTC[Ac3c][Aun]-OH; thioether N-14) | 68.8 nM
2 | Cc1cccc(C[C@@H]2NC(=O)[C@H](CC(=O)O)NC(=O)[C@H](Cc3ccc(OCC(=O)O)cc3)NC(=O)[C@H](CCCNC(=N)N)NC(=O)CSC[C@@H](C(=O)N[C@H](CC(N)=O)C(=O)NCCCCCCCCCCC(=O)O)NC(=O)[C@H](C(C)O)NC(=O)[C@H](CO)NC(=O)[C@H](CC3CCCCC3)NC(=O)[C@H](CCN)NC(=O)[C@@H](CC(C)C)NC(=O)[C@H](CCCN)NC(=O)[C@H](Cc3ccc(OCC(=O)O)cc3)NC(=O)[C@H](Cc3ccc(-c4ccccc4)cc3)NC(=O)[C@H](Cc3ccc(OCC(=O)O)cc3)NC2=O)c1 (stereo partly drawn) [Compound 3515] ({CH2CO}-RY(Carboxymethyl)D[Phe(3-Me)]Y(Carboxymethyl)[Bip]Y(Carboxymethyl)[Orn][dL][Dab][Cha]S[Thr(3ξ)]C[dN][Aun]-OH; thioether N-14) | 169 nM
3 | Cc1cccc(C[C@@H]2NC(=O)[C@H](CC(=O)O)NC(=O)[C@H](Cc3ccc(OCC(=O)O)cc3)NC(=O)[C@H](Cc3ccncc3)NC(=O)CSC[C@@H](C(=O)N[C@@H](CCN)C(=O)NCCCCCCCCCCC(=O)O)NC(=O)[C@H]([C@@H](C)O)NC(=O)[C@H](C(C)C)NC(=O)[C@H](CC3CCCCC3)NC(=O)[C@H](CCN)NC(=O)[C@@H](CC(C)C)NC(=O)[C@H](CCCN)NC(=O)[C@H](Cc3ccc(OCC(=O)O)cc3)NC(=O)[C@H](Cc3ccc(-c4ccccc4)cc3)NC(=O)[C@H](C(C)(C)O)NC2=O)c1 [Compound 2151] ({CH2CO}-[4Pal]Y(Carboxymethyl)D[Phe(3-Me)][Val(3-OH)][Bip]Y(Carboxymethyl)[Orn][dL][Dab][Cha]VTC[Dab][Aun]-OH; thioether N-14) | 40.6 nM
4 | Cc1cccc(C[C@@H]2NC(=O)[C@H](CC(=O)O)NC(=O)[C@H](Cc3ccc(OCC(=O)O)cc3)NC(=O)[C@H](CCCNC(=N)N)NC(=O)CSC[C@@H](C(=O)N[C@@H](CCN)C(=O)NCCCCCCCCCCC(=O)O)NC(=O)[C@H](CCNC(=O)C(C)(C)C)NC(=O)[C@H](C(C)C)NC(=O)[C@H](CC3CCCCC3)NC(=O)[C@H](CCN)NC(=O)[C@@H](CC(C)C)NC(=O)[C@H](CCCN)NC(=O)[C@H](Cc3ccc(OCC(=O)O)cc3)NC(=O)[C@H](Cc3ccc(-c4ccccc4)cc3)NC(=O)[C@H](Cc3ccc(O)cc3)NC2=O)c1 [Compound 2119] ({CH2CO}-RY(Carboxymethyl)D[Phe(3-Me)]Y[Bip]Y(Carboxymethyl)[Orn][dL][Dab][Cha]V[Dab](Piv)C[Dab][Aun]-OH; thioether N-14) | 10.3 nM
5 | CC(C)C[C@H]1NC(=O)[C@H](Cc2cnc[nH]2)NC(=O)[C@H](Cc2ccc(C(=O)O)cc2)NC(=O)[C@H](Cc2ccc(-c3ccccc3)cc2)NC(=O)[C@H](Cc2ccc(C(=O)O)cc2)NC(=O)[C@H](Cc2cccc(C(F)(F)F)c2)NC(=O)[C@H](CC(=O)O)NC(=O)[C@H](Cc2ccc(C(=O)O)cc2)NC(=O)[C@H](C(C)O)NC(=O)CSC[C@@H](C(=O)N[C@@H](CCN)C(=O)NCCOCCOCC(=O)NCCCCCCCCCCCCC(=O)O)NC(=O)[C@H](CC(=O)O)NC(=O)[C@H](C(C)C)NC(=O)[C@H](CC2CCCCC2)NC(=O)[C@H](CCN)NC1=O (stereo partly drawn) [Compound 3867] ({CH2CO}-[Thr(3ξ)][Phe(4-COOH)]D[Phe(3-CF3)][Phe(4-COOH)][Bip][Phe(4-COOH)]H[dL][Dab][Cha]VDC[Dab][AEEA]-{NH(CH2)12COOH}; thioether N-14) | 48.1 nM

Other lines, results leading:

Row | IC50 | SMILES
6 | 121 nM | Cc1cccc(C[C@@H]2NC(=O)[C@H](CC(=O)O)NC(=O)[C@H](Cc3ccc(OCC(=O)O)cc3)NC(=O)[C@H](CCCNC(=N)N)NC(=O)CSC[C@@H](C(=O)N[C@H](CC(N)=O)C(=O)NCCCCCCCCCCC(=O)O)NC(=O)[C@H](C(C)O)NC(=O)[C@H](C(C)O)NC(=O)[C@H](CC3CCCCC3)NC(=O)[C@H](CCN)NC(=O)[C@@H](CC(C)C)NC(=O)[C@H](CCCN)NC(=O)[C@H](Cc3ccc(OCC(=O)O)cc3)NC(=O)[C@H](Cc3ccc(-c4ccccc4)cc3)NC(=O)[C@H](Cc3ccc(OCC(=O)O)cc3)NC2=O)c1 (stereo partly drawn) [Compound 3523] ({CH2CO}-RY(Carboxymethyl)D[Phe(3-Me)]Y(Carboxymethyl)[Bip]Y(Carboxymethyl)[Orn][dL][Dab][Cha][Thr(3ξ)][Thr(3ξ)]C[dN][Aun]-OH; thioether N-14)
7 | 7.8 nM | CC(C)C[C@H]1NC(=O)[C@H](CCCN)NC(=O)[C@H](CCCNC(N)=O)NC(=O)[C@H](Cc2ccc(-c3ccccc3)cc2)NC(=O)[C@H](C(C)C)NC(=O)[C@H](Cc2c[nH]c3ccccc23)NC(=O)[C@H](CC(=O)O)NC(=O)[C@H](Cc2ccc(OCC(=O)O)cc2)NC(=O)[C@H](CN)NC(=O)CSC[C@@H](C(=O)NCCOCCOCC(=O)N[C@@H](CCCCN)C(=O)NCCCCCCCCCCC(=O)O)NC(=O)[C@H](CCCNC(N)=O)NC(=O)[C@H](C(C)C)NC(=O)[C@H](CC2CCCCC2)NC(=O)[C@H](CCN)NC1=O [Compound 3146] ({CH2CO}-[Dap]Y(Carboxymethyl)DWV[Bip][Cit][Orn][dL][Dab][Cha]V[Cit]C[AEEA]K[Aun]-OH; thioether N-14)
8 | 27.5 nM | Cc1cccc(C[C@@H]2NC(=O)[C@H](CC(=O)O)NC(=O)[C@H](Cc3ccc(OCC(=O)O)cc3)NC(=O)[C@H](CCN)NC(=O)CSC[C@@H](C(=O)N[C@@H](CCN)C(=O)NCCOCCOCC(=O)NCCOCCOCC(=O)NCCCCCCCCCCCCCCC(=O)O)NC(=O)[C@H](Cc3cnc[nH]3)NC(=O)[C@H](C(C)(C)O)NC(=O)[C@H](CC3CCCCC3)NC(=O)[C@H](CCN)NC(=O)[C@@H](CC(C)C)NC(=O)[C@H](CCCN)NC(=O)[C@H](Cc3ccc(C(=O)O)cc3)NC(=O)[C@H](Cc3ccc(-c4ccccc4)cc3)NC(=O)[C@H](Cc3ccc(C(=O)O)cc3)NC2=O)c1 [Compound 3762] ({CH2CO}-[Dab]Y(Carboxymethyl)D[Phe(3-Me)][Phe(4-COOH)][Bip][Phe(4-COOH)][Orn][dL][Dab][Cha][Val(3-OH)]HC[Dab][AEEA][AEEA]-{NH(CH2)14COOH}; thioether N-14)
9 | 10.4 nM | CCC(C)[C@@H]1NC(=O)[C@H](CC2CCCCC2)NC(=O)[C@H](CCN)NC(=O)[C@@H](CC(C)C)NC(=O)[C@H](CCCN)NC(=O)[C@H](C(C)CC)NC(=O)[C@H](Cc2ccc(-c3ccccc3)cc2)NC(=O)[C@H](C(C)CC)NC(=O)[C@H](Cc2c[nH]c3ccccc23)NC(=O)[C@H](CC(=O)O)NC(=O)[C@H](Cc2ccc(OCC(=O)O)cc2)NC(=O)[C@H](C(C)O)NC(=O)CSC[C@@H](C(=O)N[C@@H](CN)C(=O)NCCOCCOCC(=O)N[C@@H](CCCN)C(=O)NCCCCCCCCCCC(=O)O)NC(=O)[C@H](CO)NC1=O (stereo partly drawn) [Compound 3121] ({CH2CO}-[Thr(3ξ)]Y(Carboxymethyl)DW[Ile(3ξ)][Bip][Ile(3ξ)][Orn][dL][Dab][Cha][Ile(3ξ)]SC[Dap][AEEA][Orn][Aun]-OH; thioether N-14)
10 | 125 nM | Cc1cccc(C[C@@H]2NC(=O)[C@H](CC(=O)O)NC(=O)[C@H](Cc3ccc(OCC(=O)O)cc3)NC(=O)[C@H](C)NC(=O)CSC[C@@H](C(=O)N[C@@H](CCN)C(=O)NCCOCCOCC(=O)NCCCCCCCCCCCCCCC(=O)O)NC(=O)[C@H](Cc3cnc[nH]3)NC(=O)[C@H](C(C)(C)O)NC(=O)[C@H](CC3CCCCC3)NC(=O)[C@H](CCN)NC(=O)[C@@H](CC(C)C)NC(=O)[C@H](CCCN)NC(=O)[C@H](Cc3ccc(OCC(=O)O)cc3)NC(=O)[C@H](Cc3ccc(-c4ccccc4)cc3)NC(=O)[C@H](Cc3ccc(OCC(=O)O)cc3)NC2=O)c1 [Compound 3851] ({CH2CO}-AY(Carboxymethyl)D[Phe(3-Me)]Y(Carboxymethyl)[Bip]Y(Carboxymethyl)[Orn][dL][Dab][Cha][Val(3-OH)]HC[Dab][AEEA]-{NH(CH2)14COOH}; thioether N-14)
11 | 10.8 nM | Cc1cccc(C[C@@H]2NC(=O)[C@H](CC(=O)O)NC(=O)[C@H](Cc3ccc(OCC(=O)O)cc3)NC(=O)[C@H](CN)NC(=O)CSC[C@@H](C(=O)N[C@@H](CCN)C(=O)NCCCCCCCCCCC(=O)O)NC(=O)[C@H](CO)NC(=O)[C@H](C(C)(C)O)NC(=O)[C@H](CC3CCC3)NC(=O)[C@H](CCN)NC(=O)[C@@H](CC(C)C)NC(=O)[C@H](CCCN)NC(=O)[C@H](Cc3ccc(OCC(=O)O)cc3)NC(=O)[C@H](Cc3ccc(-c4ccccc4)cc3)NC(=O)[C@H](Cc3ccc(OCC(=O)O)cc3)NC2=O)c1 [Compound 2175] ({CH2CO}-[Dap]Y(Carboxymethyl)D[Phe(3-Me)]Y(Carboxymethyl)[Bip]Y(Carboxymethyl)[Orn][dL][Dab][Cba][Val(3-OH)]SC[Dab][Aun]-OH; thioether N-14)
12 | 31.5 nM | CC(C)C[C@H]1NC(=O)[C@H](CCCN)NC(=O)[C@H](C(C)C)NC(=O)[C@H](Cc2ccc(-c3ccccc3)cc2)NC(=O)[C@H](C(C)C)NC(=O)[C@H](Cc2c[nH]c3ccccc23)NC(=O)[C@H](CC(=O)O)NC(=O)[C@H](Cc2ccc(OCC(=O)O)cc2)NC(=O)[C@H](CN)NC(=O)CSC[C@@H](C(=O)N[C@@H](C)C(=O)N[C@@H](CCCN)C(=O)NCCCCCCCCCCC(=O)O)NC(=O)[C@H]([C@@H](C)O)NC(=O)[C@H](C(C)C)NC(=O)[C@H](CC2CCCCC2)NC(=O)[C@H](Cc2cnc[nH]2)NC1=O [Compound 1091] ({CH2CO}-[Dap]Y(Carboxymethyl)DWV[Bip]V[Orn][dL]H[Cha]VTCA[Orn][Aun]-OH; thioether N-14)
